Our source for the IC50 values is ChEMBL document CHEMBL1268854, “A Bisindole Alkaloid with Hedgehog Signal Inhibitory Activity from the Myxomycete Perichaena chrysosperma” (J Nat Prod, 2010).

The nature of assay [1]: Cytotoxicity against mouse C3H10T1/2 cells after 24 hrs. It is filed as cell-based. As to conditions: C3H 10T1/2, 24 h.
Assay [2] is described as follows: Inhibition of hedgehog signaling pathway in human HaCaT cells assessed as inhibition of GLI1-mediated transcriptional activity. It is filed as cell-based.
A further assay relates to PANC-1. The assay can be described thus: Cytotoxicity against human PANC1 cells after 24 hrs. It is filed as functional, cell-based. As to conditions: PANC-1, 24 h.
In the next assay the test system is DU-145. The assay can be described thus: Cytotoxicity against human DU145 cells after 24 hrs. It is filed as functional, cell-based. As to conditions: DU-145, 24 h.

A word on the IC50: it is the concentration that gives 50% inhibition. `COC1NC(=O)c2c1c1c3ccccc3[nH]c1c1[nH]c3cc(O)ccc3c21` (centres undefined): the IC50 in assay [1] is more than 14 µM; in assay [2], 4.6 µM; in the assay with PANC-1, 5 µM; in the assay on DU-145 it was 4.2 µM.
